Measured values published in US20090215742A1, “AMIDE […]” (PFIZER, INC., priority 2005, published 2009).

Target: T1, HSP-90 (Homo sapiens, UniProt P07900)
T1 construct: fused on or other part: 6-His tag at the C-terminus
Assay: HSP-90 SPA (scintillation proximity assay) competition binding assay, displacement of tritiated propyl-Geldanamycin
Details: for inhibition at 1 µM: read-out: % inhibition @ 1 μM; for inhibition at 10 µM: read-out: % inhibition @ 10 μM
Description: Compounds of the present invention were evaluated for potency against HSP-90 using a SPA (scintillation proximity assay) competition binding assay. Briefly, either full length or N-terminal HSP-90 that contains a 6-His tag on its C-terminus binds to copper on Yttrium-silicate scintillant beads via the His-tag. Tritiated propyl-Geldanamycin (pGA), whose structure is shown below, is an analog of a natural inhibitor of HSP-90 called Geldanamycin.
Tritiated pGA, which contains a tritiated propyl-amine group added at the #17 position, binds HSP-90 and brings the isotope into proximity with the beads. […] The beta signal emitted from the isotope excites the scintillant, which creates a measurable signal. As competitive compounds are added to the assay mixture, they compete with bound tritiated pGA at the ATP-binding site on the N-terminal of HSP-90. When a compound displaces the labeled pGA, the signal is reduced (the beta-particles are no longer in proximity with the bead). This reduction in signal is used to quantify the extent to which the inhibitor/compound is competitive with pGA.
Typical reaction solutions contained 30 nM HSP-90 and 200 nM ^3H-pGA in binding buffer (100 mM Hepes, pH 7.5 and 150 mM KCl). […] Inhibitors were added to the HSP-90/^3H-pGA solutions at eleven different concentrations for Ki determinations. […] To determine percent inhibition, the compound was tested at 1 and 10 μM. The final DMSO in the samples was 4%. Copper-Ysi beads (Amersham, #RPNQ0096) that have been diluted in binding buffer were added to each well to give a final concentration of 100 μg/well. The plates were sealed, covered with a foil-covered lid and shaken for 30 minutes at room temperature. The beads were allowed to settle for 30 minutes after which the plates were counted using a Packard TopCount NXT instrument. This procedure has also been adapted for medium throughput using a Beckman Biomek FX. Samples were run in duplicate and on two separate days to assure an accurate value of Ki.
For Ki determinations, the corrected cpm's (actual cpm's minus background) were plotted vs. inhibitor concentration using GraphPad Prism software. […] The IC50 was then used to calculate the Ki by using the Cheng-Prusoff equation: […]
This is normally true when the observed IC50 is […] the HSP-90 concentration. For a tight binding inhibitor, the following equation can be applied: […]
EL and ELo are the radioligand-HSP-90 complexes in the presence and absence of inhibitor, respectively. EL/ELo represents the fractional signal in the presence of inhibitor. Io, Eo, and Lo are the inhibitor, HSP-90, and radioligand concentrations, respectively.

Row | Structure (SMILES) | inhibition at 1 µM [%] | inhibition at 10 µM [%]
1 | Cc1noc(C)c1COCC1COCCN(C(=O)c2ccc(O)cc2O)C1 (stereo not drawn) [Example 98, 4-[(6-{[(3,5-dimethylisoxazol-4-yl)methoxy]methyl}-1,4-oxazepan-4-yl)carbonyl]benzene-1,3-diol] | 26.7 | 65.9
2 | CN(C(=O)c1ccc(O)cc1O)[C@H]1CCCC[C@@H]1O [Example 45, 2,4-dihydroxy-N-(2-hydroxycyclohexyl)-N-methylbenzamide] | 9.6 | 38.3
3 | O=C(c1ccc(O)cc1O)N1CCCC1 [Example 90, 4-(pyrrolidin-1-ylcarbonyl)benzene-1,3-diol] | 23.2 | 65.4
4 | O=C(c1ccc(O)cc1O)N1CCC2(CC1)CC(OCc1ccccc1F)CO2 (stereo not drawn) [Example 51, 4-({3-[(2-fluorobenzyl)oxy]-1-oxa-8-azaspiro[4.5]dec-8-yl}carbonyl)benzene-1,3-diol] | 22.1 | 70.9
5 | Cc1cccc(N2CCN(C(=O)c3ccc(O)cc3O)CC2)n1 [Example 101, 4-{[4-(6-methylpyridin-2-yl)piperazin-1-yl]carbonyl}benzene-1,3-diol] | 21.8 | 70.2
6 | O=C(c1ccc(O)cc1O)N1CCC(c2ccccc2)(c2ccccc2)CC1 [Example 54, 4-[(4,4-diphenylpiperidin-1-yl)carbonyl]benzene-1,3-diol] | 50.3 | 85.5
7 | O=C(c1ccc(O)cc1O)N1CCc2ccccc2C1 [Example 109, 4-(3,4-dihydroisoquinolin-2(1H)-ylcarbonyl)benzene-1,3-diol] | 68 | 87.2
8 | O=C(c1ccc(O)cc1O)N1CCOC[C@@H]1c1ccccc1 [Example 135, 4-[(3-phenylmorpholin-4-yl)carbonyl]benzene-1,3-diol] | 15.9 | 44.7
9 | Cc1ccc(OCC2CCCN(C(=O)c3ccc(O)cc3O)C2)cn1 (stereo not drawn) [Example 60, 4-[(3-{[(6-methylpyridin-3-yl)oxy]methyl}piperidin-1-yl)carbonyl]benzene 1,3-diol] | 77.6 | 88.1
10 | O=C(c1ccc(O)cc1O)N1CCC(O)(c2ccc(Cl)c(C(F)(F)F)c2)CC1 [Example 78, 4-({4-[4-chloro-3-(trifluoromethyl)phenyl]-4-hydroxypiperidin-1-yl}carbonyl)benzene-1,3-diol] | 17.7 | 68.1
11 | C[C@@H](c1ccccc1)N(C)C(=O)c1ccc(O)cc1O [Example 66, 2,4-dihydroxy-N-methyl-N-(1-phenylethyl)benzamide] | 55.5 | 84.8
12 | O=C(c1ccc(O)cc1O)N1CCOCC(COCC2CC2)C1 (stereo not drawn) [Example 37] | 24.6 | 64.1
13 | O=C(c1ccc(O)cc1O)N1CCCC(CCOc2ccccc2)C1 (stereo not drawn) [Example 55, 4-{[3-(2-phenoxyethyl)piperidin-1-yl]carbonyl}benzene-1,3-diol] | 77.4 | 87
14 | O=C(c1ccc(O)cc1O)N1CCN(c2nc3ccc(Cl)cc3o2)CC1 [Example 125, 4-{[4-(6-chloro-1,3-benzoxazol-2-yl)piperazin-1-yl]carbonyl}benzene-1,3-diol] | 22.4 | 59.8
15 | O=C(c1ccc(O)cc1O)N1CCC(c2ccnc(C(F)(F)F)n2)CC1 [Example 83, 4-({4-[2-(trifluoromethyl)pyrimidin-4-yl]piperidin-1-yl}carbonyl)benzene-1,3-diol] | 10.1 | 35
16 | O=C(c1ccc(O)cc1O)N1CCN(c2nc(-c3ccccc3C(F)(F)F)cc(=O)[nH]2)CC1 [Example 126, 2-[4-(2,4-dihydroxybenzoyl)piperazin-1-yl]-6-[2-(trifluoromethyl)phenyl]pyrimidin-4(3H)-one] | 35.9 | 71
17 | COc1ccc(F)c(C2=NOC3(COCCN(C(=O)c4ccc(O)cc4O)C3)C2)c1 (stereo not drawn) [Example 132, 4-{[3-(2-fluoro-5-methoxyphenyl)-1,7-dioxa-2,10-diazaspiro[4.6]undec-2-en-10-yl]carbonyl}benzene-1,3-diol] | 33.3 | 73.9
18 | O=C(c1ccc(CO)cc1)N1Cc2ccccc2C1 [Example 184, [4-(1,3-dihydro-2H-isoindol-2-ylcarbonyl)phenyl] methanol] | – | 0

Row | Structure (SMILES) | inhibition at 1 µM [%] | inhibition at 10 µM [%]
19 | O=C(c1ccc(O)cc1O)N1CCOC(COc2ccccc2)C1 (stereo not drawn) [Example 112, 4-{[2-(phenoxymethyl)morpholin-4-yl]carbonyl}benzene-1,3-diol] | 48.1 | 80.5
20 | O=C(c1ccc(O)cc1O)N1CCC(c2ncccn2)CC1 [Example 86, 4-[(4-pyrimidin-2-ylpiperidin-1-yl)carbonyl]benzene-1,3-diol] | 23.9 | 59.9
21 | COCc1nccc(C2CCCN(C(=O)c3ccc(O)cc3O)C2)n1 (stereo not drawn) [Example 64, 4-({3-[2-(methoxymethyl)pyrimidin-4-yl]piperidin-1-yl}carbonyl)benzene-1,3-diol] | 5.9 | 59.2
22 | Cc1ccc(O)c(C(=O)N2Cc3ccccc3C2)c1 [Example 30, 2-(1,3-dihydro-2H-isoindol-2-ylcarbonyl)-4-methylphenyl] | 5.8 | 61.2
23 | COc1ccccc1-c1nnc([C@H]2CCCN2C(=O)c2ccc(O)cc2O)o1 [Example 92, 4-({2-[5-(2-methoxyphenyl)-1,3,4-oxadiazol-2-yl]pyrrolidin-1-yl}carbonyl)benzene-1,3-diol] | 9 | 22.4
24 | COC(=O)C1CCN(C(=O)c2ccc(O)cc2O)C1 (stereo not drawn) [Example 94, methyl 1-(2,4-dihydroxybenzoyl)pyrrolidine-3-carboxylate] | 21.1 | 62.1
25 | O=C(c1ccc(O)cc1O)N1CCC2(C=Cc3cc(Cl)ccc3O2)CC1 [Example 79, 4-[(6-chloro-1′H-spiro[chromene-2,4′-piperidin]-1′-yl)carbonyl]benzene-1,3-diol] | 57.7 | 85.1
26 | O=C(c1ccc(O)cc1O)N1CCC(Oc2ccc(Cl)cc2)CC1 [Example 68, 4-{[4-(4-chlorophenoxy)piperidin-1-yl]carbonyl}benzene-1,3-diol] | 37.2 | 78.6
27 | O=C(c1ccc(O)cc1O)N1CCC(CCc2cccc(Cl)c2)CC1 [Example 48, 4-({4-[2-(3-chlorophenyl)ethyl]piperidin-1-yl}carbonyl)benzene-1,3-diol] | 63.3 | 87.5
28 | O=C(c1ccc(O)cc1O)N1CC=CCC1 [Example 97, 4-(3,6-dihydropyridin-1(2H)-ylcarbonyl)benzene-1,3-diol] | 62.7 | 82.6
29 | O=C(c1ccc(O)cc1O)N1CCOCC(O)(COC2CCCC2)C1 (stereo not drawn) [Example 61, 4-({6-[(cyclopentyloxy)methyl]-6-hydroxy-1,4-oxazepan-4-yl}carbonyl)benzene 1,3-diol] | 37.7 | 75.6
30 | O=C(c1ccc(O)cc1O)N1CCC(CCc2cncnc2)CC1 [Example 50, 4-{[4-(2-pyrimidin-5-ylethyl)piperidin-1-yl]carbonyl}benzene-1,3-diol] | 34.6 | 77.7
31 | Cc1nccc(-c2ccc(O)c(C(=O)N3Cc4ccccc4C3)c2)n1 [Example 35, 2-(1,3-dihydro-2H-isoindol-2-ylcarbonyl)-4-(2-methylpyrimidin-4-yl)phenol] | 6.1 | 32.8
32 | O=C(c1ccc(O)cc1O)N1CCOC(COc2ccc(F)cc2Cl)C1 (stereo not drawn) [Example 115, 4-({2-[(2-chloro-4-fluorophenoxy)methyl]morpholin-4-yl}carbonyl)benzene-1,3-diol] | 60.3 | 83.7
33 | CN(Cc1ccccc1Cl)C(=O)c1ccc(O)cc1O [Example 113, N-(2-chlorobenzyl)-2,4-dihydroxy-N-methylbenzamide] | 53 | 81.9
34 | O=C(c1cc(-c2ccncn2)ccc1O)N1Cc2ccccc2C1 [Example 32, 2-(1,3-dihydro-2H-isoindol-2-ylcarbonyl)-4-pyrimidin-4-ylphenyl] | -11.9 | 14.2
35 | O=C(c1ccc(O)cc1O)N1CCC(CCc2cnccn2)CC1 [Example 47, 4-{[4-(2-pyrazin-2-ylethyl)piperidin-1-yl]carbonyl}benzene-1,3-diol] | 43.4 | 80
